Results: ChEMBL document CHEMBL1139753, “Synthesis, in vitro and in vivo cytotoxicity of 6,7-diaryl-2,3,8,8a-tetrahydroindolizin-5(1H)-ones” (Bioorg Med Chem Lett, 2007)

test system: HCT-116; assay: Cytotoxicity against HCT116 cells after 48 hrs; format: functional, cell-based; conditions: Homo sapiens, HCT-116, 48 h

Compared with `COc1ccc(C2=C(c3cccc(Cl)c3)C(=O)N3CCCC3C2)cc1` (stereo not given), `COc1ccc(C2=C(c3cccc(N)c3)C(=O)N3CCCC3C2)cc1` (stereo not given) is higher in IC50: 8 µM for the first, greater than 25 µM for the second.

First: COc1ccc(C2=C(c3ccccc3)C(=O)N3CCCC3C2)cc1 (stereo not given)
Second: O=C1C(c2ccccc2)=C(c2ccc(O)cc2)CC2CCCN12 (stereo not given)
The IC50 of the first is 23-fold lower: 0.39 µM for the first, 9 µM for the second.

Going from `COc1ccc(C2=C(c3ccc(Cl)c(Cl)c3)C(=O)N3CCCC3C2)cc1` (stereo not given) to `COc1ccc(C2=C(c3ccc(Cl)cc3)C(=O)N3CCCC3C2)cc1` (stereo not given), the IC50 rises from 4 µM to 13 µM (3.2-fold).

First: COc1ccc(C2=C(c3ccc(OC)cc3)C(=O)N3CCCC3C2)cc1 (stereo not given)
Second: COc1ccc(C2=C(c3ccc(C)cc3)C(=O)N3CCCC3C2)cc1 (stereo not given)
The IC50 of the first is 3.1-fold lower: 3.2 µM for the first, 10 µM for the second. The first is the more potent here.

First: COc1ccc(C2=C(c3ccc(N=[N+]=[N-])cc3)C(=O)N3CCCC3C2)cc1 (stereo not given)
Second: COc1ccc(C2=C(c3ccccc3Cl)C(=O)N3CCCC3C2)cc1 (stereo not given)
The IC50 of the first is 3.1-fold higher: 25 µM for the first, 8 µM for the second.

Compared with `COc1ccc(C2=C(c3ccc(OC)c(OC)c3)C(=O)N3CCCC3C2)cc1OC` (stereo not given), `COc1ccc(C2=C(c3ccc(OC)c(OC)c3)C(=O)N3CCCC3C2)cc1` (stereo not given) is lower in IC50: greater than 10 µM for the first, 5 µM for the second.

Going from `O=C1C(c2ccccc2)=C(c2ccc(OCc3ccccc3)cc2)CC2CCCN12` (stereo not given) to `COc1ccc(C2=C(c3cc(OC)c(OC)c(OCc4ccccc4)c3)CC3CCCN3C2=O)cc1OC` (stereo not given), the IC50 falls from 8.9 µM to 3.3 µM (2.7-fold).

`O=C1N[C@H]2[C@H](CS[C@H]2CCCCC(=O)OC(=O)CCCCCNOc2ccc(C3=C(c4ccccc4)C(=O)N4CCCC4C3)cc2)N1` (stereo not given in full) showed an IC50 of 17 µM.
